Data on two molecules can be found in ChEMBL document CHEMBL1152319, “Bromopyrrole alkaloids from marine sponges of the genus Agelas” (2009).

Converted amounts (≈) assume the structure as drawn.

Common to all, as to format: functional
Experiment [1] concerns Aspergillus niger. Briefly: Antifungal activity against Aspergillus niger.
Experiment [2] relates to Bacillus subtilis. Nature of the experiment: Antibacterial activity against Bacillus subtilis.
The subject of experiment [3] is Micrococcus luteus. Nature of the experiment: Antibacterial activity against Micrococcus luteus.
The test system of experiment [4] is Staphylococcus aureus. Nature of the experiment: Antibacterial activity against Staphylococcus aureus.

In general, MIC refers to the least concentration at which growth counts as inhibited.

As to `O=C1NC(=O)/C(=C/[C@@H](O)CNC(=O)c2cc(Br)c(Br)[nH]2)N1` [MUKANADIN F], in experiment [1], the MIC came out at 16.7 µg/mL (≈ 39.6 µM).
Consider `N=C1N[C@H]2N3C(=N)N[C@@H](O)[C@@]34[C@H]([C@H](CNC(=O)c3cc(Br)c[nH]3)[C@@H](CNC(=O)c3cc(Br)c(Br)[nH]3)[C@@H]4Cl)[C@@]2(O)N1` [NAGELAMIDE O], for which the MIC in experiment [2], in experiment [3] and in experiment [4] was 33.3 µg/mL (≈ 43.4 µM) in each case.
